Results published in article PMC7916522, “In Vitro and In Vivo Anti-Candida Activity and Structural Analysis of Killer Peptide (KP)-Derivatives” (Journal of Fungi, 2021).
Peptide text beside a SMILES is read from it.

Legend:
Candida albicans SC5314 = test: CFU assay, neutralization of candidacidal activity by laminarin; format: cell-based; conditions: peptide at its minimal candidacidal concentration
Protocol: The candidacidal activity of KP-derivatives, in comparison to KP, was evaluated by a previously described colony forming unit (CFU) assay against the reference C. albicans strain SC5314 [25]. Briefly, approximately 500 yeast cells were incubated at 37 °C for 6 h in 100 µL of distilled water in the presence or absence (control growth) of the synthetic peptides at serial dilutions. After spreading on Sabouraud Dextrose agar (SDA) plates and incubation for 48–72 h at 30 °C, CFUs were counted. Peptide fungicidal activity was determined as percentage of CFU inhibition, according to the formula 100-(CFUs peptide treated/CFUs control growth) × 100. Each assay was carried out in triplicate and at least two independent experiments were performed for each condition. Half maximal effective concentration (EC50) was calculated by nonlinear regression analysis using GraphPad Prism 5 software (San Diego, CA, USA). CFU assays were also performed in order to verify if laminarin (100 or 200 µg/mL), a soluble β-1,3-glucan, could neutralize the candidacidal activity of KP-derivatives at their minimum fungicidal concentration [25].

human red blood cells = conditions: peptide 25 µM
Protocol: (§1) A stock solution of peptides (20 mg/mL) was prepared in dimethyl sulfoxide (DMSO), then proper dilutions were made for evaluation of biological activities. DMSO at proper concentration was present in controls (without peptides). All the peptides were evaluated for their hemolytic activity against freshly collected human red blood cells, while cytotoxicity against monkey kidney epithelial cells LLC-MK2 was determined by resazurin assay, as previously described.

LLC-MK2 cells = conditions: 24 h incubation, resazurin assay; for Cell viability (%) 10 µM: peptide 10 µM; for Cell viability (%) 25 µM: peptide 25 µM; for Cell viability (%) 50 µM: peptide 50 µM
Protocol: as §1

SMILES: CSCC[C@H](NC(=O)[C@@H](NC(=O)[C@@H](NC(=O)[C@H](CCCCN)NC(=O)[C@H](C)N)C(C)C)[C@@H](C)O)C(=O)N[C@H](C(=O)N[C@@H](CS)C(=O)N[C@@H](CO)C(=O)N[C@@H](C)C(=O)N[C@@H](CO)C(=O)O)[C@@H](C)O [A10S (KP)] (H-AKVTMTCSAS-OH)
- C. albicans Growth Inhibition (%) in the Presence of Laminarin 100 µg/mL (Candida albicans SC5314): 96.39 ± 1.68%
- C. albicans Growth Inhibition (%) in the Presence of Laminarin 200 µg/mL (Candida albicans SC5314): 1.80 ± 0.49%
- hemolysis after 30 min (human red blood cells; 30 min incubation): 1.13%
- Cell viability (%) 10 µM (LLC-MK2 cells): 93.59%
- Cell viability (%) 25 µM (LLC-MK2 cells): 88.20%
- Cell viability (%) 50 µM (LLC-MK2 cells): 89.71%

SMILES: CSCC[C@H](NC(=O)[C@@H](NC(=O)[C@@H](NC(=O)[C@H](CCCCN)NC(=O)[C@@H](N)Cc1c[nH]cn1)C(C)C)[C@@H](C)O)C(=O)N[C@H](C(=O)N[C@@H](CS)C(=O)N[C@@H](CO)C(=O)N[C@@H](C)C(=O)N[C@@H](CO)C(=O)O)[C@@H](C)O [Peptide H10S] (H-HKVTMTCSAS-OH)
- C. albicans Growth Inhibition (%) in the Presence of Laminarin 100 µg/mL (Candida albicans SC5314): 6.20 ± 3.71%
- Cell viability (%) 10 µM (LLC-MK2 cells): 96.77%
- Cell viability (%) 25 µM (LLC-MK2 cells): 94.90%
- Cell viability (%) 50 µM (LLC-MK2 cells): 90.99%

SMILES: CSCC[C@H](NC(=O)[C@@H](NC(=O)[C@@H](NC(=O)[C@@H](N)CCCCN)C(C)C)[C@@H](C)O)C(=O)N[C@H](C(=O)N[C@@H](CS)C(=O)N[C@@H](CO)C(=O)N[C@@H](C)C(=O)N[C@@H](CO)C(=O)O)[C@@H](C)O [Peptide K9S] (H-KVTMTCSAS-OH)
- C. albicans Growth Inhibition (%) in the Presence of Laminarin 100 µg/mL (Candida albicans SC5314): 31.09 ± 1.71%
- C. albicans Growth Inhibition (%) in the Presence of Laminarin 200 µg/mL (Candida albicans SC5314): 0.68 ± 0.97%
- Cell viability (%) 10 µM (LLC-MK2 cells): 100%
- Cell viability (%) 25 µM (LLC-MK2 cells): 98.55%
- Cell viability (%) 50 µM (LLC-MK2 cells): 95.86%

SMILES: CSCC[C@H](NC(=O)[C@@H](NC(=O)[C@@H](NC(=O)[C@H](CCCCN)NC(=O)[C@@H](N)CCCCN)C(C)C)[C@@H](C)O)C(=O)N[C@H](C(=O)N[C@@H](CS)C(=O)N[C@@H](CO)C(=O)N[C@@H](C)C(=O)N[C@@H](CO)C(=O)O)[C@@H](C)O [Peptide K10S] (H-KKVTMTCSAS-OH)
- C. albicans Growth Inhibition (%) in the Presence of Laminarin 100 µg/mL (Candida albicans SC5314): 1.07 ± 0.39%
- hemolysis after 120 min (human red blood cells; 120 min incubation): 2.42%
- Cell viability (%) 10 µM (LLC-MK2 cells): 93.74%
- Cell viability (%) 25 µM (LLC-MK2 cells): 100%
- Cell viability (%) 50 µM (LLC-MK2 cells): 90.95%

SMILES: CSCC[C@H](NC(=O)[C@@H](NC(=O)[C@@H](NC(=O)[C@H](CCCCN)NC(=O)[C@@H](N)CC(C)C)C(C)C)[C@@H](C)O)C(=O)N[C@H](C(=O)N[C@@H](CS)C(=O)N[C@@H](CO)C(=O)N[C@@H](C)C(=O)N[C@@H](CO)C(=O)O)[C@@H](C)O [Peptide L10S] (H-LKVTMTCSAS-OH)
- C. albicans Growth Inhibition (%) in the Presence of Laminarin 100 µg/mL (Candida albicans SC5314): 0%
- Cell viability (%) 10 µM (LLC-MK2 cells): 95.70%
- Cell viability (%) 25 µM (LLC-MK2 cells): 93.44%
- Cell viability (%) 50 µM (LLC-MK2 cells): 98.07%

SMILES: CSCC[C@H](NC(=O)[C@@H](NC(=O)[C@@H](NC(=O)[C@H](CCCCN)NC(=O)[C@@H]1CCCN1)C(C)C)[C@@H](C)O)C(=O)N[C@H](C(=O)N[C@@H](CS)C(=O)N[C@@H](CO)C(=O)N[C@@H](C)C(=O)N[C@@H](CO)C(=O)O)[C@@H](C)O [Peptide P10S] (H-PKVTMTCSAS-OH)
- C. albicans Growth Inhibition (%) in the Presence of Laminarin 100 µg/mL (Candida albicans SC5314): 97.71 ± 0.46%
- C. albicans Growth Inhibition (%) in the Presence of Laminarin 200 µg/mL (Candida albicans SC5314): 3.10 ± 4.38%
- Cell viability (%) 10 µM (LLC-MK2 cells): 93.25%
- Cell viability (%) 25 µM (LLC-MK2 cells): 90.20%
- Cell viability (%) 50 µM (LLC-MK2 cells): 89.77%

SMILES: CSCC[C@H](NC(=O)[C@@H](NC(=O)[C@@H](NC(=O)[C@H](CCCCN)NC(=O)[C@@H](N)CO)C(C)C)[C@@H](C)O)C(=O)N[C@H](C(=O)N[C@@H](CS)C(=O)N[C@@H](CO)C(=O)N[C@@H](C)C(=O)N[C@@H](CO)C(=O)O)[C@@H](C)O [Peptide S10S] (H-SKVTMTCSAS-OH)
- C. albicans Growth Inhibition (%) in the Presence of Laminarin 100 µg/mL (Candida albicans SC5314): 99.12 ± 0.50%
- C. albicans Growth Inhibition (%) in the Presence of Laminarin 200 µg/mL (Candida albicans SC5314): 60.73 ± 13.13%
- Cell viability (%) 10 µM (LLC-MK2 cells): 99.77%
- Cell viability (%) 25 µM (LLC-MK2 cells): 99.75%
- Cell viability (%) 50 µM (LLC-MK2 cells): 91.09%

SMILES: CSCC[C@H](NC(=O)[C@@H](NC(=O)[C@@H](NC(=O)[C@H](CCCCN)NC(=O)[C@@H](N)Cc1ccc(O)cc1)C(C)C)[C@@H](C)O)C(=O)N[C@H](C(=O)N[C@@H](CS)C(=O)N[C@@H](CO)C(=O)N[C@@H](C)C(=O)N[C@@H](CO)C(=O)O)[C@@H](C)O [Peptide Y10S] (H-YKVTMTCSAS-OH)
- C. albicans Growth Inhibition (%) in the Presence of Laminarin 100 µg/mL (Candida albicans SC5314): 5.57 ± 4.84%
- Cell viability (%) 10 µM (LLC-MK2 cells): 96.89%
- Cell viability (%) 25 µM (LLC-MK2 cells): 95.35%
- Cell viability (%) 50 µM (LLC-MK2 cells): 97.18%
